Reference: article PMC10819521 (Pharmaceutics, 2024)
“And” between values parts separate entries of the source, which are not always exact repeats. Identical values can stand only once.

How the values were obtained:
[1] = molecular target: T1, Human isolated cathepsin B (Homo sapiens, UniProt P07858); test: Cathepsin B assay (chromogenic substrate Z-Arg-Arg-pNA); format: biochemical; settings: 50 µM inhibitor, 60 min, 100% = no inhibitor, n.i. = residual activity ≥ 95%
T1 construct: Human isolated cathepsin B (Calbiochem) was assayed spectrophotometrically; purchased Calbiochem
Protocol: (§1) Cathepsin assays. Assays with human cathepsins B, S, L, and K were carried out as described previously. Stock solutions of substrates and inhibitors were prepared in DMSO. The final DMSO concentration was 2%. All test compounds were investigated in duplicate at a concentration of 50 µM to determine residual activities based on endpoints of substrate consumption after 60 min. Ki values were obtained in duplicate measurements with six different inhibitor concentrations, and 60-min-progress curves were analyzed by linear regression. IC50 values were obtained by non-linear regression using the equation vi = v0/(1 + ([I]/IC50), where vi is the product formation rate at different inhibitor concentrations, v0 is the uninhibited product formation rate, [I] is the inhibitor concentration, and IC50 is the half-maximal inhibitory concentration. IC50 values are transformed to Ki values using the Cheng-Prusoff equation.
(§2) Human isolated cathepsin B (Calbiochem) was assayed spectrophotometrically (Cary 50 Bio, Varian) at 405 nm and 37 °C. Assay buffer was 100 mM sodium phosphate buffer pH 6.0, 100 mM NaCl, 5 mM EDTA, 0.01% Brij 35. For activation, an enzyme stock solution was diluted with assay buffer containing 5 mM DTT and incubated for 30 min at 37 °C. The final concentration of the chromogenic substrate Z-Arg-Arg-pNA was 500 µM (0.45 × Km).
(§3) Cathepsins inhibition. Compounds 4a–l were then evaluated for their ability to inhibit Cat S. Besides Cat S, the set of assays included three related human cathepsins, B, L, and K, all members of the class of lysosomal cysteine proteases (see Table S1 in the Supporting Information). Following reported procedures, [39, 40, 41] percentage or residual activities were determined using chromogenic or fluorogenic peptide substrates, with endpoints measured after 60 min of substrate consumption. To determine Ki values, progress curves were followed over 60 min and analyzed by linear regression. Ki values were then obtained by non-linear regression.

[2] = tested on: Nrf2-ARE; test: Nrf2 transcriptional activation, cell-based luciferase assay; settings: 24 h
Protocol: Nrf2 transcriptional activation potencies. The assessment of the Nrf2 transcriptional activation potencies of compounds 4a–l was carried out using the previously described method, and detailed information is provided in the supporting information.
Nrf2 transcriptional activation potencies of compounds 4a–l. […] AREc32 cells were exposed to escalating concentrations of each compound (1, 5, 10, 25, 50, 100, 125, and 150 μM) for 24 h to reach the cytotoxic threshold, followed by measurements of luciferase activity. Melatonin was used as a positive control.
4e H Cl H n.i. 76 n.i. […]
Nrf2 transcriptional activation potencies. The stable NRF2/ARE luciferase reporter HEK293 cell line
(Promega) according to the manufacturer's instructions. To assess cellular viability, the stable

[3] = tested on: voltage-gated calcium channels; test: Calcium channel blockade (FLIPR Calcium 6 indicator, SH-SY5Y cells); format: cell-based, human; settings: compounds at 10 µM, KCl/CaCl2 stimulation, n.i. = no inhibition
Protocol: Calcium channel blockade. Evaluation of the calcium channel blockade of compounds 4a–l was performed using the FLIPR Calcium 6 indicator according to a previously established protocol. Briefly, human neuroblastoma cell line SH-SY5Y seeded out on 96-well plate were treated with fluorescent calcium indicator (FLIPR Calcium 6, Molecular Devices). Cells were incubated with indicator for 2 h at 37 °C, facilitating internalization of the indicator. Subsequently, cells were exposed to nimodipine (10 µM, used as reference inhibitor), DMSO (0.1%, used as vehicle control) or our compounds of interest (10 µM) for 10 min also at 37 °C. Following that, cell fluorescence was recorded using a microplate reader (λEx = 485 nm; λEm = 525 nm). Baseline fluorescence was recorded for 5 s. Afterwards, cells were stimulated by the addition of the solution of KCl and CaCl2 (90 and 5 mM, respectively) in order to induce the opening of voltage-gated calcium channels. An increase in fluorescence of calcium indicator after inducing calcium flux was recorded for another 30 s. Data were collected from three independent experiments, with eight technical replicates per experiment. Fluorescence intensity values were normalized to the baseline recorded before the induction of calcium flux. The percentage of inhibition was calculated as a reduction of normalized calcium flux in comparison with the DMSO vehicle control. Outliers were detected using the Grubbs test, and any outlying values were excluded from further analysis.
Calcium channel blockade. The Ca^2+ channel blocking capacity of compounds 4a–l and nimodipine, used as a standard at a concentration of 10 μM, was evaluated according to an established methodology.

[4] = molecular target: T2, Human recombinant cathepsin S (Homo sapiens, UniProt P25774); test: Cathepsin S assay (fluorogenic substrate Z-Phe-Arg-AMC); format: biochemical; settings: 50 µM inhibitor, 60 min; 100% = no inhibitor; n.i. = residual activity ≥ 95%; read-out: Percentage residual activity of human cathepsin S
T2 construct: purchased Enzo Life Sciences
Protocol: as §1
Human recombinant cathepsin S (Enzo Life Sciences) was assayed fluorometrically (FLUOstar Optima plate reader, BMG Labtech) at 25 °C with an emission wavelength of 360 nm and an absorption wavelength of 460 nm. The assay buffer was 100 mM sodium phosphate buffer pH 6.0, 100 mM NaCl, 5 mM EDTA, 0.01% Brij 35. For activation, an enzyme stock solution was diluted with assay buffer containing 5 mM DTT and incubated for 60 min at 37 °C.
as §3

[5] = molecular target: T3, Human isolated cathepsin L (Homo sapiens, UniProt P07711); test: Cathepsin L assay (chromogenic substrate Z-Phe-Arg-pNA); format: biochemical; settings: 50 µM inhibitor, 60 min, 100% = no inhibitor, n.i. = residual activity ≥ 95%
T3 construct: Human isolated cathepsin L (Enzo Life Sciences) was assayed spectrophotometrically; purchased Enzo Life Sciences
Protocol: as §1
as §2, with “L (Enzo Life Sciences)” for “B (Calbiochem)”, “The assay” for “Assay”, “EDTA, and” for “EDTA,”, “Z-Phe-Arg-pNA” for “Z-Arg-Arg-pNA”, “100” for “500”, “(5.88” for “(0.45”
as §3

[6] = molecular target: T4, Human recombinant cathepsin K (Homo sapiens, UniProt P43235); test: Cathepsin K assay (substrate Z-Leu-Arg-AMC); format: biochemical; settings: 50 µM inhibitor, 60 min, 100% = no inhibitor, n.i. = residual activity ≥ 95%
T4 construct: purchased Enzo Life Sciences
T4 sequence (P43235 115-329): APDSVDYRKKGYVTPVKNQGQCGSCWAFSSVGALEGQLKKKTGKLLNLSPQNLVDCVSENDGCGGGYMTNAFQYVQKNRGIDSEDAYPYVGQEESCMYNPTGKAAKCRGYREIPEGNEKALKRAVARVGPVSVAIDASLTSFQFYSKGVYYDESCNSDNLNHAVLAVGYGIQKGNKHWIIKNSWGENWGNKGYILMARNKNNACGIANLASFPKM
Protocol: as §1
Human recombinant cathepsin K (Enzo Life Sciences) was assayed fluorometrically (FLUOstar Optima plate reader, BMG Labtech) with an emission wavelength of 360 nm and an absorption wavelength of 460 nm. The assay buffer was 100 mM sodium citrate pH 5.0, 100 mM NaCl, 1 mM EDTA, 0.01% CHAPS. For activation, an enzyme stock solution was diluted with assay buffer containing 5 mM DTT and incubated for 30 min at 37 °C. The final concentration of the chromogenic substrate Z-Leu-Arg-AMC was 40 µM (13.33 × Km).
as §3

[7] = Oxygen radical absorbance capacity assay (ORAC-FL); settings: ORAC-FL method; mean ± SEM
Protocol: Oxygen radical absorbance capacity assay. The evaluation of the antioxidant activity of compounds 4a–l was carried out using the previously established ORAC-FL method, and detailed information is provided in the supporting information.
Antioxidant assay. The antioxidant assessment was conducted by evaluating the compounds 4a–l through the determination of oxygen radical absorbance capacity (ORAC) using the ORAC-Fluorescein (ORAC-FL) method […]
Oxygen radical absorbance capacity assay.
ORAC-FL method, using fluorescein as a fluorescent probe. Shortly, fluorescein and the antioxidants
2,2'-Azobis(amidinopropane)
(emission wavelength) every minute for 1 hour. […]

T3 sequence (P07711 114-333): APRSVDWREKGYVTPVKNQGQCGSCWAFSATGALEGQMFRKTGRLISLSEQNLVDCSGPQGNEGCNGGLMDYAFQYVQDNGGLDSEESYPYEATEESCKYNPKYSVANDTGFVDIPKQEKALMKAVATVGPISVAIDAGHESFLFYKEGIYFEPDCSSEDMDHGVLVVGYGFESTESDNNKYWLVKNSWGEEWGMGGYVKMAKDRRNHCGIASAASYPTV
T2 sequence (P25774 115-331): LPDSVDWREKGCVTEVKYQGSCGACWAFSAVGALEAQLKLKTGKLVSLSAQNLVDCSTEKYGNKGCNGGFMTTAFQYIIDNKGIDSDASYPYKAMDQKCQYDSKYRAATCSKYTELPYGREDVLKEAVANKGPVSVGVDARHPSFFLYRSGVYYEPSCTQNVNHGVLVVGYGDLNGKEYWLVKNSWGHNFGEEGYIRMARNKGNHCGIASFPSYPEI

Percentage residual activity of human cathepsin B [1]	remaining activity at 50 µM [4] [%]	Percentage residual activity of human cathepsin L [5]	Percentage residual activity of human cathepsin K [6]	remaining activity at 50 µM ([1]; read-out: Percentage residual activity of human cathepsin B) [%]	EC50 ([2]; CD = concentration required to double the specific activity of the luciferase reporter, read-out: Nrf2 Induction Potencies CD) [µM]	remaining activity at 50 µM ([5]; read-out: Percentage residual activity of human cathepsin L) [%]	remaining activity at 50 µM ([6]; read-out: Percentage residual activity of human cathepsin K) [%]	SMILES	Induction of the Nrf2 pathway (luciferase activity) ([2]; concentrations up to 150 μM, versus non-treated cells)	Calcium Channel Blockade (%) [3] [%]	ORAC [7]
n.i.	68	n.i.	n.i.	–	–	–	–	C#CCNC(=O)C1=C(C)NC(C)=C(C(=O)NCC#C)C1c1ccccc1 [4a, 2,6-Dimethyl-4-phenyl-N3,N5-bis(prop-2-yn-1-yl)-1,4-dihydropyridine-3,5-dicarboxamide]	no significant activity	12	0.86 Trolox equivalents and 0.86 ± 0.05 Trolox equivalents
–	79	–	–	86	81.7 ± 11.6	88	81	C#CCN(C)C(=O)C1=C(C)NC(C)=C(C(=O)N(C)CC#C)C1c1cccc(OC)c1 [4l, 4-(3-Methoxyphenyl)-N2,N3,5,6-tetramethyl-N3,N5-bis(prop-2-yn-1-yl)-1,4-dihydropyridine-3,5-dicarboxamide]	–	15	0.96 ± 0.07 Trolox equivalents
